# In patent publication US12134610B2, “Somatostatin subtype-2 receptor (SST2R) targeted therapeutics and uses thereof” (priority 2022, dated 2024):
# Starred links: 1 amine or outer side, 2 acyl side, 3 side chain; linkers in the order of their positions; H or OH if unused. Non-standard residues stand in square brackets, D forms with d. Residues, ends and D or L forms follow the SMILES beside them. *: point of attachment. X1 = Cc1cc(F)cc(-c2cnc(NCCNC(=O)CCOCCC(=O)*)c(-c3nc4ccc(Cl)cc4[nH]3)c2N2CCC(N)CC2)c1; Dolaproine = CO[C@@H]([C@@H]1CCCN1)[C@@H](C)C(=O)O; Dil = CC[C@H](C)[C@H](NC)[C@@H](CC(=O)O)OC; PABC = O=C(OCc1ccc(N[*:1])cc1)[*:2]; X2 = C[C@@H](N*)[C@@H](O)c1ccccc1; Cit = NC(=O)NCCC[C@H](N)C(=O)O; NMeV = CN[C@H](C(=O)O)C(C)C
# What was measured:
# Format in all cases: cell-based
# [1] = target: T1, human somatostatin receptor subtype 2 (Homo sapiens, UniProt P30874); assay: Functional cAMP assay for SSTR2 agonists (HTRF) in CHO-K1 cells; details: CHO-K1 cells stably expressing human SST2, 20 min; read-out: hSST2 cAMP Avg EC50
# T1 construct: expressed in transfected cells
# Description: General overview: All five SSTR subtypes are Gi coupled G-protein coupled receptors (GPCRs) that lead to decreases in intracellular cyclic AMP (cAMP) when activated by an agonist. Therefore, measurement of intracellular cAMP levels can be used to assess whether compounds of the invention are agonists of SSTR subtypes (John Kelly, Troy Stevens, W. Joseph Thompson, and Roland Seifert, Current Protocols in Pharmacology, 2005, 2.2.1-2.2). One example of an intracellular cAMP assay is described below.
# Functional Assay for SSTR2 Agonists
# Four days prior to the assay, 2,000 Chinese hamster ovary cells (CHO-K1, ATCC #CCL-61) stably expressing the human somatostatin receptor subtype 2 are plated in each well of a 96-well tissue culture-treated plate in Ham's F12 growth media (ThermoFisher #10-080-CM) supplemented with 10% donor bovine serum (Gemini Bio-Products #100-506), 100 U/mL penicillin; 100 ug/mL streptomycin; 2 mM L-glutamine (Gemini Bio-Products #400-110) and 0.2 mg/mL hygromycin B (GoldBio #31282-04-9). The cells are cultured at 37° C., 5% CO2 and 95% humidity. cAMP is measured with HTRF dynamic cAMP assay (Cisbio, #62AM5PEJ) per manufacturer's instructions. On the day of the assay, the media is aspirated and the cells are treated with 50 μL of stimulation buffer supplemented with 10.2 mM 3-Isobutyl-1-methylxanthine (IBMX, Millipore Sigma #15879) and 1.6 μM NKH477 (Tocris #1603), plus various dilutions of SMDCs of the present invention. The cells are incubated for 20 minutes at 37° C. (the final concentration of the compounds of the invention are typically 0-10,000 nM). The cells are treated with 50 μL of lysis buffer (HRTF cAMP kit, Cisbio) and incubated at room temperature for 30 minutes with rotary shaking at 600 rpm, and then diluted with 150 μL of stimulation buffer and shaken for an additional five minutes at 300 rpm. The lysate is transferred to 384-well plates and incubated for 1-24 hours at room temperature, and cAMP accumulation is detected by d2-labeled cAMP and Anti-cAMP-Cryptate. The time-resolved fluorescent signal is read using a m1000 Pro (Tecan) or CLARIOStar (BMG Labtech) microplate reader, where the samples are excited with light at 340 nm and emission light is measured at 620 nm and 665 nm. The data is expressed as a calculation of the fluorescence ratio (665 nm/620 nm). The intracellular cAMP concentrations are calculated by regression to a standard curve and are plotted vs. the concentration of the compounds of the invention. The EC50 of the compounds are calculated using standard methods. All data manipulations are in GraphPad Prism v9 (GraphPad, San Diego, CA).
# SST2 = target: T2, SST2 (Homo sapiens, UniProt P30874); assay: PathHunter CHO-K1 SST2 internalization assay; details: PathHunter CHO-K1 SST2, 90 min; read-out: Internalization EC50
# T2 construct: host or cells: PathHunter CHO-K1 SST2 cells
# Experimental: SMDCs of the present invention were assessed in vitro using the human PathHunter CHO-K1 SST2 β-arrestin2 and PathHunter CHO-K1 SST2 Internalization Assays from DiscoverX. The CHO-K cells were seeded in 20 μLs of cell culture medium in a white-walled 384 well tissue culture-compatible plate at a density of 2500 cells/well. After a 48-hour incubation, cells were treated with 5 μLs of a 1:3 serially diluted SST2 SMDC prepared at 5× concentration with a final top compound concentration of 10 uM for 90 min at 37 C and in 5% CO2. 11 dilutions were tested as well as one treatment that was compound free. After incubation, the media containing treatments were discarded and 20 μL of a working solution of Beta-Glo from Promega Beta-Glo Assay System was added to each well. The plate was then incubated for 60 min at room temperature in the dark. Luminescence was measured using a Tecan plate reader. IC50 curves were generated using the nonlinear regression analysis (four-parameters) with GraphPad Prism 9. Results were the average of duplicates and are corrected for background.
# [2] = test system: NCI-H524 (ATCC) human small cell lung cancer cells; details: 2 h
# Experimental: SMDCs of the present invention were assessed in an in vitro assay evaluating the inhibition of cell proliferation. NCI-H524 (ATCC) human small cell lung cancer cells were plated in 96-well V-bottom plates (Costar) at a concentration of 5,000 cells/well. 24 h later, the cells were treated for 2 h with a SMDC. SMDC starting dose was 1 uM and two-fold serial dilutions were done for a total of 11 points. After 2 h of treatment, cells were spun down, and the drug-containing media was removed, and fresh complete media was added and used to resuspend the cells, which were spun again. After removal of the media, the cells were resuspended in complete medium and incubated for an additional 70 h. Cell proliferation was assessed using the CellTiter Glo Assay according to the standard protocol (Promega). Luminescence was measured using a TECAN plate reader. Percent proliferation inhibition was calculated using the following formula: % inhibition=(Luminescence Control−Luminescence Treatment)/Luminescence Control*100. IC50 curves were generated using the nonlinear regression analysis (four-parameter) with GraphPad Prism 9.
# T1 sequence (P30874 whole entry): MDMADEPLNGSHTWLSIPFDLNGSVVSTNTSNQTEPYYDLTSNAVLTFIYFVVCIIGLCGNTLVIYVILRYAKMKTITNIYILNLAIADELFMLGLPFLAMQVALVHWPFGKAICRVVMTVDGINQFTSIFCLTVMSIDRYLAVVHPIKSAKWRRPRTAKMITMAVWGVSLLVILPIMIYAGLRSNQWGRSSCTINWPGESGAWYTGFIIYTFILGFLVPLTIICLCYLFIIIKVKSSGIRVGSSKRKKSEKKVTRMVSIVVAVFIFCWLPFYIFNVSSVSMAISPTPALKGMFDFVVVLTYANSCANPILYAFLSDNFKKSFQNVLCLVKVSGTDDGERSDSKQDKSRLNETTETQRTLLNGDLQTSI
# T2 sequence (P30874 whole entry): as above
SMILES,EC50 [1],EC50 (SST2),EC50 [2]
CC[C@H](C)[C@@H]([C@@H](CC(=O)N1CCC[C@H]1[C@H](OC)[C@@H](C)C(=O)N[C@H](C)[C@@H](O)c1ccccc1)OC)N(C)C(=O)[C@@H](NC(=O)[C@H](C(C)C)N(C)C(=O)OCc1ccc(NC(=O)[C@H](CCCNC(N)=O)NC(=O)[C@@H](NC(=O)[C@H](CCC(=O)O)NC(=O)CCOCCC(=O)NCCNc2ncc(-c3cc(C)cc(F)c3)c(N3CCC(N)CC3)c2-c2nc3ccc(Cl)cc3[nH]2)C(C)C)cc1)C(C)C [Compound 36] (X1-EV[Cit][PABC][NMeV]V[Dil][Dolaproine]-X2),0.25 nM,12.9 nM,44.1 nM
CC[C@H](C)[C@@H]([C@@H](CC(=O)N1CCC[C@H]1[C@H](OC)[C@@H](C)C(=O)N[C@H](C)[C@@H](O)c1ccccc1)OC)N(C)C(=O)[C@@H](NC(=O)[C@H](C(C)C)N(C)C(=O)OCc1ccc(NC(=O)[C@H](C)NC(=O)[C@@H](NC(=O)CCOCCNCCNc2ncc(-c3cc(C)cc(F)c3)c(N3CCC(N)CC3)c2-c2nc3ccc(Cl)cc3[nH]2)C(C)C)cc1C(=O)NCCN)C(C)C [Compound 89],0.71 nM,66 nM,60 nM
CC[C@H](C)[C@@H]([C@@H](CC(=O)N1CCC[C@H]1[C@H](OC)[C@@H](C)C(=O)N[C@H](C)[C@@H](O)c1ccccc1)OC)N(C)C(=O)[C@@H](NC(=O)[C@H](C(C)C)N(C)C(=O)OCc1ccc(NC(=O)[C@H](CCCNC(N)=O)NC(=O)[C@@H](NC(=O)CN2CCN(CC(=O)NCCOCCOCCOCCOCCC(=O)NCCNc3ncc(-c4cc(C)cc(F)c4)c(N4CCC(N)CC4)c3-c3nc4ccc(Cl)cc4[nH]3)CCN(CC(=O)NCCOCCOCCOCCOCCC(=O)NCCNc3ncc(-c4cc(C)cc(F)c4)c(N4CCC(N)CC4)c3-c3nc4ccc(Cl)cc4[nH]3)CC2)C(C)C)cc1)C(C)C [Compound 46],0.54 nM,26.1 nM,85.9 nM
CC[C@H](C)[C@@H]([C@@H](CC(=O)N1CCC[C@H]1[C@H](OC)[C@@H](C)C(=O)N[C@H](C)[C@@H](O)c1ccccc1)OC)N(C)C(=O)[C@@H](NC(=O)[C@H](C(C)C)N(C)C(=O)OCc1ccc(NC(=O)[C@H](CCCNC(N)=O)NC(=O)[C@@H](NC(=O)CCOCCOCCOCCOCCC(=O)NCCNc2ncc(-c3cc(C)cc(F)c3)c(N3CCC(N)CC3)c2-c2nc3ccc(Cl)cc3[nH]2)C(C)C)cc1C(=O)NCCNC(=O)CCOCCOCCOCCOCCN)C(C)C [Compound 48],0.26 nM,6.9 nM,12.4 nM
CC[C@H](C)[C@@H]([C@@H](CC(=O)N1CCC[C@H]1[C@H](OC)[C@@H](C)C(=O)N[C@H](C)[C@@H](O)c1ccccc1)OC)N(C)C(=O)[C@@H](NC(=O)[C@H](C(C)C)N(C)C(=O)OCc1ccc(NC(=O)[C@H](C)NC(=O)[C@@H](NC(=O)[C@H](CS(=O)(=O)O)NC(=O)CCOCCC(=O)NCCNc2ncc(-c3cc(C)cc(F)c3)c(N3CCC(N)CC3)c2-c2nc3ccc(Cl)cc3[nH]2)C(C)C)cc1C(=O)NCCN)C(C)C [Compound 117],0.081 nM,2.6 nM,3.7 nM
